The source of these data is article PMC12715756 (ACS Chemical Neuroscience, 2025).

Where only a bound is given, the exact number is not on record here.

In series [1] the target is T1, NET (Homo sapiens, UniProt P23975). Nature of the series: Release (superfusion) assay, NET mediated [3H]MPP+ release. The note with it: for Emax: read-out: Emax [95%-CI], NET mediated [3H]MPP+ release.
Series [2] has as its system NGF-differentiated PC12 cells. Nature of the series: Cytotoxicity, WST-8 assay. The note with it: 24 hours. A general note: Tetrazolium assays rely on reduction of a dye to a coloured formazan, in cell work by metabolically active cells.
The target in another series is T2, OCT2 (Homo sapiens, UniProt O15244).
T2 sequence (O15244 1-555): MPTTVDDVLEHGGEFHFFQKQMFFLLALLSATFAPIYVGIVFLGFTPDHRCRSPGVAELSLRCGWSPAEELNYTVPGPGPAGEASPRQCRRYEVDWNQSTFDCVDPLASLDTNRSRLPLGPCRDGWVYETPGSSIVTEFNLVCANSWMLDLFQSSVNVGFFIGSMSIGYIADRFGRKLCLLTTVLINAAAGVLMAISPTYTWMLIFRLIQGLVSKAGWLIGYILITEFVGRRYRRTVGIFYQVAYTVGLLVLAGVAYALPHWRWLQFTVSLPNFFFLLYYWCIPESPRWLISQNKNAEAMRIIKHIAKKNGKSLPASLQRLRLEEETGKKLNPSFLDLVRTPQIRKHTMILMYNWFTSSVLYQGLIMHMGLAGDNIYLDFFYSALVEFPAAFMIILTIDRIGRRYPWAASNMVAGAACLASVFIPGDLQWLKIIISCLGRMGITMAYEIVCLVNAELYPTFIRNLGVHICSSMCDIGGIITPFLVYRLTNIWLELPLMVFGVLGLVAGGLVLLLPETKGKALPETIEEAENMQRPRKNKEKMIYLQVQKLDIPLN
Nature of the series: Uptake inhibition assay, [3H]MPP+ uptake in HEK293 cells.

Another series has as its target T3, 5-HT2B (Homo sapiens, UniProt P41595).
T3 construct: expressed in transfected cells; host or cells: HEK293T (ATCC; RRID:CVCL_0063), transient transfection
Nature of the series: Gq dissociation BRET assay in HEK293T cells. To be noted: for EC50: Gq dissociation BRET; for Emax: HEK-293T, read-out: Emax ± SEM, %5-HT response 5-HT2B. It is filed as cell-based.

For series [3] the following is noted: pHLM; literature data ref 9 (Alberto-Silva et al., 2024); cited from earlier work.
The next series concerns male Swiss CD-1 mice. Nature of the series: Conditioned place preference (CPP). Format: in vivo. The note with it: 10 mg/kg i.p., compared to saline. The method, then: (§1) Male Swiss CD-1 mice (Janvier, Le Genest, France), weighing 30–35 g and aged 6–8 weeks, were used for HLA, thigmotaxis, CPP, and core body temperature experiments. Animals were housed under temperature-controlled conditions (22 ± 1 °C) with a 12 h light/dark cycle and had free access to food and water (standard laboratory diet, Panlab SL, Barcelona, Spain). Doses for HLA, thigmotaxis, CPP, and core body temperature experiments were calculated based on the free base form of each compound. For HTR experiments, male C57BL/6J mice (6–8 weeks old) were obtained from Jackson Laboratories (Bar Harbor, ME, USA) and housed up to four per cage with a reversed light-cycle (lights on at 1900 h, off at 0700 h). Food and water were provided ad libitum, except during behavioral testing. Testing was conducted between 1000 and 1830 h. Doses for HTR experiments were calculated based on the respective salt forms of the compounds.
For this experiment, an apparatus with two distinct compartments, differing in tactile and visual cues, connected by a central corridor, was used. The conditioned place preference (CPP) procedure consisted of three phases: preconditioning, conditioning, and postconditioning. In the preconditioning phase (day 0), mice were placed in the middle of the corridor and allowed to freely explore both compartments for 15 min. The time spent in each compartment was recorded and monitored using specific tracking software (Smart 3.0 Panlab, Barcelona, Spain). In the conditioning phase (day 1–day 8), access to the corridor was closed. […] On alternate days, , mice received a saline i.p. injection and were placed in the other compartment for 30 min. Mice in the control group received a saline injection in every session. The compartments and sessions in which the drug was administered were randomized. In the postconditioning phase (test day), the same conditions as the preconditioning phase were reinstated. A preference score was determined by calculating the difference in time spent in the drug-paired compartment between the post- and preconditioning phases.

The target of series [4] is T4, SERT (Homo sapiens, UniProt P31645). Nature of the series: Uptake inhibition assay, [3H]5-HT uptake in HEK293 cells. Also noted: expressed in transfected cells. It is filed as cell-based.
Series [5] concerns the target T5, DAT (Homo sapiens, UniProt Q01959).
Series [6] addresses T4, SERT. Nature of the series: Release (superfusion) assay, SERT mediated [3H]5-HT efflux. The note with it: for Emax: read-out: Emax [95%-CI], SERT mediated [3H]5-HT efflux.
A further series deals with male C57BL/6J mice. Nature of the series: Head-twitch response (HTR). Format: in vivo. The note with it: IP, 30 min, doses based on the salt form. How it is done: as §1
The HTR was assessed using a head-mounted magnet and a magnetometer detection coil. Mice were anesthetized, a small incision was made in the scalp, and a small neodymium magnet was attached to the dorsal surface of the cranium by using dental cement. Following a two week recovery period, HTR experiments were carried out in a well-lit room with at least 7 days between sessions to avoid carryover effects. Mice (N = 4–7/group) received intraperitoneal (IP) injections of vehicle (saline) or test drug (5 mL/kg injection volume), and then activity was recorded in a glass cylinder surrounded by a magnetometer coil for 30 min. Doses for HTR experiments were calculated based on the respective salt forms of the compounds. Coil voltage was low-pass filtered (1 kHz cutoff frequency), amplified, digitized (20 kHz sampling rate, 16-bit ADC resolution), and saved to disk using a Powerlab 8/35 data acquisition system with LabChart software (ver. 8.1 ADInstruments, Colorado Springs, CO, USA). To detect head twitches, events in the recordings were transformed to scalograms, deep features were extracted using the deep convolutional neural network ResNet-50, and then the images were classified using a support vector machine (SVM). Head twitch counts were analyzed using one-way ANOVA. Posthoc comparisons were made using Dunnett’s test.

The target in series [7] is T1, NET. Nature of the series: Uptake inhibition assay, [3H]MPP+ uptake in HEK293 cells. Format: cell-based. On the set-up: expressed in transfected cells.
For series [8], the target named is T6, human organic cation transporter 1 (OCT1) (Homo sapiens, UniProt O15245).
T6 sequence (O15245 1-554): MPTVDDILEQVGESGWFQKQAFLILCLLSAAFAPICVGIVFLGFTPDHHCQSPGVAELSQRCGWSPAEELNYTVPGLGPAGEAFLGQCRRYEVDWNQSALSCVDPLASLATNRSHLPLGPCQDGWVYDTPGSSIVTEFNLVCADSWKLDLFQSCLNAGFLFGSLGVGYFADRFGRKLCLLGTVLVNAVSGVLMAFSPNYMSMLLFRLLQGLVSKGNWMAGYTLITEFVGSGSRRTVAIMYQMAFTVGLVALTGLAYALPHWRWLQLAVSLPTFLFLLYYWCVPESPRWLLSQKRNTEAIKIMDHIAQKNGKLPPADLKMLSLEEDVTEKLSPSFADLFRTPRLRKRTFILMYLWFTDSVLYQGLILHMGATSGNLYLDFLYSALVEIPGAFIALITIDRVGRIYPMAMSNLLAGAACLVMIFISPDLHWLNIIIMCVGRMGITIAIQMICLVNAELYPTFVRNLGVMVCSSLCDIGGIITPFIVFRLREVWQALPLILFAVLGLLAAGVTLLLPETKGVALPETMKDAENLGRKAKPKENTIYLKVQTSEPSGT
The series is described as above.

For series [9], the target named is T5, DAT. Nature of the series: cell-based. To be noted: read-out: Emax [95%-CI], DAT mediated [3H]MPP+ release.
The target of the next series is T7, 5-HT2A (Homo sapiens, UniProt P28223).
T7 construct: expressed in transfected cells; host or cells: HEK293T (ATCC; RRID:CVCL_0063), transient transfection
Nature of the series: Gq dissociation BRET assay in HEK293T cells. To be noted: for EC50 / Emax ± SEM, %5-HT response 5-HT2A: Gq dissociation BRET; for Emax ± SEM, %5-HT response 5-HT2A: relative to 5-HT; for Emax: HEK-293T, read-out: Emax ± SEM, %5-HT response 5-HT2A, Gq dissociation BRET, relative to 5-HT. It is filed as cell-based.

Series [10] is described as follows: Metabolic stability, substrate depletion in pooled human liver microsomes. The note with it: human, pooled human liver microsomes. For orientation: Liver microsomes are vesicles of endoplasmic reticulum, rich in cytochrome P450 enzymes.
For series [11], the system named is DAT. To be noted: incubation at IC50 concentration for 60 min.

T3 sequence (P41595 whole entry): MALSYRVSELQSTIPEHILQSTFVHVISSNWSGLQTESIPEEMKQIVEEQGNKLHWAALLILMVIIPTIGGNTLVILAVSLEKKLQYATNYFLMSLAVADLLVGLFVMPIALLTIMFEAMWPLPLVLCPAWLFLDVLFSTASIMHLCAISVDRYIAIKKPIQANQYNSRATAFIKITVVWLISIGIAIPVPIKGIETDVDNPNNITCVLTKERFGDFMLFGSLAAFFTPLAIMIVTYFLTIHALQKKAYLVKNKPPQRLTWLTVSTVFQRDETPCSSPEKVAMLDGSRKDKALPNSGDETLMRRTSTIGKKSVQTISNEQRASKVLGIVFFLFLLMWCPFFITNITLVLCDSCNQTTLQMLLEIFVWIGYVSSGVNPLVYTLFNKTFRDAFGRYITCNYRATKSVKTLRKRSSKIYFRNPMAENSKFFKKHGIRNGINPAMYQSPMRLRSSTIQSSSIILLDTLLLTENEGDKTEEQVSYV
T4 sequence (P31645 whole entry): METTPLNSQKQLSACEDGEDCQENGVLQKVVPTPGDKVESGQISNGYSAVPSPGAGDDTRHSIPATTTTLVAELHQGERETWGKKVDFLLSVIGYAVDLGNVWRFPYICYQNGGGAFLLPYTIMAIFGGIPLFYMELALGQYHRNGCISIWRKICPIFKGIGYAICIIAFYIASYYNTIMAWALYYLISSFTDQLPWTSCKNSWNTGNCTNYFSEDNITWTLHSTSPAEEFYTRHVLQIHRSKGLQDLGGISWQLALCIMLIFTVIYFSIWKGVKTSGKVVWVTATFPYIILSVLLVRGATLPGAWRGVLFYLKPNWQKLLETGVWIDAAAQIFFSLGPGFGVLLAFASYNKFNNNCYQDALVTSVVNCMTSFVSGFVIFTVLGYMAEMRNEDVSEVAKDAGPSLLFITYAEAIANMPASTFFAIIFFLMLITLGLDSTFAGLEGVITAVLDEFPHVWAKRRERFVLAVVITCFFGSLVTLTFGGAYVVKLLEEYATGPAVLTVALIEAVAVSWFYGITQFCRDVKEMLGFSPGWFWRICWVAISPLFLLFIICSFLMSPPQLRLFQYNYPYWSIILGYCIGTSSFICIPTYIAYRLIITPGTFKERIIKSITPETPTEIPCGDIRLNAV
T5 sequence (Q01959 whole entry, the tested form may be a part): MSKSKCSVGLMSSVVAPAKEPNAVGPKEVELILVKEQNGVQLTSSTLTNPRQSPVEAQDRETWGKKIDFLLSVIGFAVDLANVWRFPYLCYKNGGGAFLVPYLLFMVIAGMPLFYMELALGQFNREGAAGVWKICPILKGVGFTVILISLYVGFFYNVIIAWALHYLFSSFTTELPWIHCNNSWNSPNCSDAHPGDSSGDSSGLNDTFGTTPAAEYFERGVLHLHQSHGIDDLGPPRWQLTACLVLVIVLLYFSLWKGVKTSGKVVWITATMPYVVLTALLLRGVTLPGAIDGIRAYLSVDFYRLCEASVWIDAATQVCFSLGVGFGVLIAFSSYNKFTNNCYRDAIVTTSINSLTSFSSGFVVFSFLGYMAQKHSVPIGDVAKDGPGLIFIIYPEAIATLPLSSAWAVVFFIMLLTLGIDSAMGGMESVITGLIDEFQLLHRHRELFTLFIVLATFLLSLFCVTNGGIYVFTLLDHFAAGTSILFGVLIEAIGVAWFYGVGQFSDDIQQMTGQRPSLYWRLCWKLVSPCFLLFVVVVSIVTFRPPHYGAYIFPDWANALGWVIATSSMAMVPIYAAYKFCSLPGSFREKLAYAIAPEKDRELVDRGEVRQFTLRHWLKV
T1 sequence (P23975 whole entry, the tested form may be a part): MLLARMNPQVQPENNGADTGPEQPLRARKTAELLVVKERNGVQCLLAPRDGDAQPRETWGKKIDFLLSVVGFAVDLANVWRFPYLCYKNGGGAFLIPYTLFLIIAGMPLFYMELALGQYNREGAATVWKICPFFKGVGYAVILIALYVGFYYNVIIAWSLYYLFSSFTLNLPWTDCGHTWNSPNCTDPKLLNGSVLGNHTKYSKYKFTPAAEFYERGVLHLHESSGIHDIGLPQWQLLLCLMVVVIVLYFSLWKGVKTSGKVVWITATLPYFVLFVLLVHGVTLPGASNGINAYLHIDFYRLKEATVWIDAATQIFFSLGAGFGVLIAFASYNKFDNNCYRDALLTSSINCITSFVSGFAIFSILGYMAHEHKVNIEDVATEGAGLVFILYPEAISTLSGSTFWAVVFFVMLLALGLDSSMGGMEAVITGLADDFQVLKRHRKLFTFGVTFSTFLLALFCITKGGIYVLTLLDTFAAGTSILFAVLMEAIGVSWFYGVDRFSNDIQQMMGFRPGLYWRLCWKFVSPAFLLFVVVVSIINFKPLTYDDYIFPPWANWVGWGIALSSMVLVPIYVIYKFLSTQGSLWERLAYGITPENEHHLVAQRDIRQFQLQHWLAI
T7 sequence (P28223 whole entry): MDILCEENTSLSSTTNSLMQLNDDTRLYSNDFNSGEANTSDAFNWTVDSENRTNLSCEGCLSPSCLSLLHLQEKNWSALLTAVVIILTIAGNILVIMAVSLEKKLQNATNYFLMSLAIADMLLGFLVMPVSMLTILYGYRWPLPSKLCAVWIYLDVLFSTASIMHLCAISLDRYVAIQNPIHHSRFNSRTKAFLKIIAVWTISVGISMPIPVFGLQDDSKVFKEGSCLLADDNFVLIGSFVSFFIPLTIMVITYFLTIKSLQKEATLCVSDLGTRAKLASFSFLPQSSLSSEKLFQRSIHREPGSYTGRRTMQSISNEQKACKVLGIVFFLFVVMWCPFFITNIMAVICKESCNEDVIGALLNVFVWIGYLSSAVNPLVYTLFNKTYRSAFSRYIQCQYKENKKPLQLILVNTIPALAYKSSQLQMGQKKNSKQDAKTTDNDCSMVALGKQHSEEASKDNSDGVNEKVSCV

By EC50 is commonly meant the midpoint of the concentration-response curve. A lower EC50 goes with higher potency in that assay. As usually defined, the Emax is the size of the effect at its maximum, as opposed to the concentration needed. As usually defined, the IC50 is the concentration needed to halve the response being measured. Read a low IC50 as greater potency in that assay. Regarding `CNC(C)Cc1ccc2c(c1)OCO2` (stereo not shown) [MDMA, 3,4-Methylenedioxymethamphetamine, reference compound], the EC50 on NET [1] was 0.73 µM; at 5-HT2B (EC50 5-HT2B), 0.531 µM; on 5-HT2B (pEC50 ± SEM 5-HT2B), 0.525 µM; at SERT [6] it was 1.95 µM; on 5-HT2A (EC50 5-HT2A) it was 3.13 µM; on 5-HT2A (pEC50 ± SEM 5-HT2A), 3.09 µM. Further, the “type of releaser at NET” value at NET [1] is given as “full releasers”. Further, the maximum response (Emax) on NET [1] was 111%; on 5-HT2B it was 59.9 ± 5.1%; at SERT [6], 39.3%; on DAT [9], 43.1%; at 5-HT2A, < 70%. In [2], the “concentration at which cytotoxicity starts” value was 2000 µM. The concentration for half-maximal inhibition (IC50) against OCT2 was 5.3 ± 0.25 µM; against SERT [4] it was 6.47 ± 0.93 µM; on NET [7] it was 3.17 ± 0.72 µM; in [8] it was 5.09 ± 3.14 µM. Besides, the “in vitro half-life (t1/2)” value in series [3] is > 2.5 h. The “rewarding effects (CPP preference score)” value in the series on male Swiss CD-1 mice was “induce rewarding effects”. Further, the “type of releaser at DAT” value on DAT [5] is given as “partial releasers”. At SERT [6], the “type of releaser at SERT” value was “partial releasers”. The HTR counts result in the series on male C57BL/6J mice is recorded as “Neither MDMA nor SDMA induced an appreciable increase in HTR counts”. Moreover, on 5-HT2A, the “Emax ± SEM, %5-HT response 5-HT2A” value is on record as 66.0 ± 2.3%.
For orientation: half-life means how long it takes for the measured level to halve. For the molecule `CC(N)Cc1ccc2c(c1)OCO2` (stereo not shown) [MDA, 3,4-Methylenedioxyamphetamine, reference compound], the EC50 is 0.35 µM at NET [1], 0.139 µM at 5-HT2B (EC50 5-HT2B), 4.35 µM at SERT [6] and 0.905 µM on 5-HT2A (EC50 5-HT2A). For the same molecule, on NET [1], the “type of releaser at NET” value was “full releasers”. Besides, the maximum response (Emax) on NET [1] was 126%; at 5-HT2B, 104 ± 4.9%; at SERT [6] it was 45.5%; on DAT [9], 67.2%; on 5-HT2A, > 70%. The IC50 on OCT2 came out at 5.13 ± 1.18 µM; on SERT [4] it was 22.9 ± 2.27 µM; at NET [7], 3.33 ± 0.47 µM; in series [8] it was 6.93 ± 2.63 µM. For the same molecule, the half-life at 0.5 μM in series [10] is > 2.5 h. The “type of releaser at DAT” value at DAT [5] was “partial releasers”. Besides, the “type of releaser at SERT” value on SERT [6] was “partial releasers”. In addition, in the series with male C57BL/6J mice, the HTR counts result is recorded as “dose-related increase in HTR counts peaking at 3 mg/kg”. The “transporter expression on plasma membrane level” value with DAT [11] is reported as “expression levels slightly increased”. Moreover, the “Emax ± SEM, %5-HT response 5-HT2A” value on 5-HT2A is reported as 87.8 ± 2.4%.
